Data taken from US8163795B2, “Chroman derivatives, medicaments and use in therapy” (Marshall Edwards, Inc., priority 2004, dated 2012).
Where two headings read alike, the source gives them in different places.

Columns and labels:
[1] = tested on: Neonatal foreskin fibroblasts (NFF); experiment: Proliferation assay (MTT), normal cell toxicity; format: cell-based, Human
Method: (§1) The normal cell line NFF (neonatal foreskin fibroblasts) was a sift from Dr. Peter Parsons (Queensland Institute of Medical Research). RK (rabbit kidney) cells were obtained from Miller Whalley (Macquarie University). Both cell lines were cultured in RPMI supplemented with 10% FCS(CSL, Australia), penicillin (100 U/ml), streptomycin ([…]), L-glutamine (2 mM) and sodium bicarbonate (1.2 g/L), and cultured at 37° C. in a humidified atmosphere of 5% CO2.
(§2) IC50 values were determined for each cell line. Cells were seeded in 96-well plates at an appropriate cell density as determined from growth kinetics analysis and cultured for 5 days in the absence and presence of the test compounds. Cell proliferation was assessed after the addition of 20 μl of 3-4,5 dimethylthiazol-2,5-diphenyl tetrazolium bromide (MTT, 2.5 mg/ml in PBS, Sigma) for 3-4 hrs at 37° C. according to manufacturer's instructions. IC50 values were calculated from semi-log plots of % of control proliferation on the y-axis against log dose on the x-axis.

rabbit kidney cells (RK) = experiment: Proliferation assay (MTT), normal cell toxicity; format: cell-based
Method: as §1, §2

[2] = tested on: CP70 ovarian cancer cell line; experiment: Proliferation assay (MTT); format: cell-based; conditions: Table 2.2 (further studies); Ovarian CP70; read-out: IC50
4405 melanoma cell line = experiment: Proliferation assay (MTT); format: cell-based; conditions: Table 15; melanoma 4405
Method: (§3) All cultures were supplemented with 10% FCS (fetal calf serum CSL, Australia), penicillin (100 U/ml), streptomycin ([…]), L-glutamine (2 mM) and sodium bicarbonate (1.2 g/L), and cultured at 37° C. in a humidified atmosphere of 5% CO2. All cell lines were purchased from ATCC (Maryland, USA) except where noted.
as §2

CCRF-CEM (Leukemic) = experiment: Proliferation assay (MTT); format: cell-based; conditions: Homo sapiens, CCRF-CEM, Table 2.2; Leukaemia CCRF-CEM
Method: as §3, §2

HT-29 (Colorectal) = experiment: Proliferation assay (MTT); format: cell-based; conditions: Homo sapiens, HT-29, Table 2.2; Colorectal HT-29
Method: as §3, §2

HTB-138 (Glioma) = experiment: Proliferation assay (MTT); format: cell-based; conditions: Table 2.2; Glioma HTB-138
Method: as §3, §2

IGR-3 (Melanoma) = experiment: Proliferation assay (MTT); format: cell-based; conditions: Table 15; melanoma IgR3
Method: as §3, §2

MM96L melanoma cell line = experiment: Proliferation assay (MTT); format: cell-based; conditions: Homo sapiens, Table 15
Method: as §3, §2

NCI-H460 (Lung) = experiment: Proliferation assay (MTT); format: cell-based; conditions: Homo sapiens, NCI-H460, Table 2.2; NSC Lung NCI-H460
Method: as §3, §2

[3] = tested on: PC3 prostate cancer cell line; experiment: Proliferation assay (MTT); format: cell-based; conditions: Table 2.2
Method: as §3, §2

RM melanoma cell line = experiment: Proliferation assay (MTT); format: cell-based; conditions: Table 15
Method: as §3, §2

[4] = tested on: SKMe128 melanoma cell line; experiment: Proliferation assay (MTT); format: cell-based; conditions: Table 15
Method: as §3, §2

[5] = tested on: MDA-MB-468 breast cancer cell line; experiment: Proliferation assay (MTT); format: cell-based; conditions: Homo sapiens, MDA-MB-468, Table 2.2; Breast MDA-MB-468; read-out: IC50
[6] = tested on: HPAC (CRL-2119) pancreatic cancer cell line; experiment: Proliferation assay (MTT); format: cell-based, human; conditions: Homo sapiens, HPAC, Table 2.2; Pancreatic HPAC; read-out: IC50
MM200 melanoma cell line = experiment: Proliferation assay (MTT); format: cell-based; conditions: read-out: IC50
A2058 melanoma cell line = experiment: Proliferation assay (MTT); format: cell-based; conditions: Homo sapiens, A2058, Table 15; melanoma A2058
cancer cell lines = experiment: Proliferation assays, statements over several cancer cell lines; format: cell-based; conditions: all melanoma cell lines tested to date
Method: as §2

[7] = HMC and HHC pharmacokinetics, oral, human patients; format: in vivo; conditions: plasma
Method: Human patients were orally dosed with 200 mg of either HMC or HHC. For each challenged patient, blood was taken over a 6 hour period and the results averaged to characterise the plasma pharmacokinetics.

CP70 (Ovarian) = experiment: HHC as chemosensitiser; format: cell-based
From the text: (§4) HHC was screened as chemosensitiser against a panel cell lines representative of a range cancer indications using a panel of cytotoxics commonly used in the treatment of cancer.

HPAC (Pancreatic) = experiment: HHC as chemosensitiser; format: cell-based
From the text: as §4

HTB-13.8 (Glioma) = experiment: HHC as chemosensitiser; format: cell-based; conditions: Glioma HTB-13.8
From the text: as §4

MDA-468 (Breast) = experiment: HHC as chemosensitiser; format: cell-based; conditions: Breast MDA-468
From the text: as §4

MM96L (Melanoma) = experiment: HHC as chemosensitiser; format: cell-based
From the text: as §4

PC3 (Prostate) = experiment: HHC as chemosensitiser; format: cell-based
From the text: as §4

[8] = tested on: cancer cell lines from different pathologies; experiment: HHC as chemosensitiser, statements by cancer indication; format: cell-based
From the text: as §4

PGE2 = experiment: Eicosanoid synthesis in LPS-stimulated murine macrophages (RAW 264.7); format: cell-based, mouse; conditions: 10 μM; negative values indicate inhibition
Method: (§5) The mouse macrophage cell line RAW 264.7 was cultured in DMEM supplemented with foetal calf serum (FCS), 2 mM glutamine and 50 U/ml penicillin/streptomycin. Subconfluent cells were detached from the flask by gentle scraping and 24-well plates seeded at 5×10^5 cells per well and allowed to adhere for 1 hr. Cells were then treated either test compound at a concentration of 10 μM (in 0.025% DMSO) or vehicle alone, and incubated for 1 hr. LPS 50 ng/ml (LPS—Sigma-Aldrich) was then added. After incubation for 16 hrs, culture media was collected and stored at −80° C. for ecosanoid measurements using enzyme immunometric assays (PGE2 and TXB2—Cayman Chemical).
(§6) Table 16: Percentage change in eicosanoid synthesis after incubating test compound at 10 μM compared with incubation with vehicle alone.

TXB2 = experiment: as above; format: cell-based, mouse; conditions: 10 μM; negative values indicate inhibition
Method: as §5, §6

[9] = human, po, humans dosed orally with 200 mg

Structure (SMILES): Oc1ccc(C2COc3cc(O)ccc3C2c2ccc(O)cc2)cc1 (stereo not drawn) [Compound 11, 3-(4-hydroxyphenyl)-4-(4-hydroxyphenyl)chroman-7-ol]
- IC50 ([1]; Homo sapiens, Fibroblast, Table 1, Neonatal Foreskin Fibroblasts (Human, NFF), read-out: IC50): 60800 nM
- IC50 ([1]; NFF): non-toxic
- IC50 (rabbit kidney cells (RK); Oryctolagus cuniculus, Table 1, Rabbit Kidney, read-out: IC50): > 150000 nM
- IC50 (rabbit kidney cells (RK); rabbit kidney cells): non-toxic
- IC50 [2]: 1100 ± 900 nM
- IC50 (4405 melanoma cell line): 500 nM
- IC50 (CCRF-CEM (Leukemic)): 600 ± 10 nM
- IC50 (HT-29 (Colorectal)): 2500 ± 1000 nM
- IC50 (HTB-138 (Glioma)): 520 ± 100 nM
- IC50 (IGR-3 (Melanoma)): 200 nM
- IC50 (MM96L melanoma cell line): 200 ± 90 nM
- IC50 (NCI-H460 (Lung)): 500 ± 100 nM
- IC50 [3]: 880 ± 400 nM
- IC50 (RM melanoma cell line): 390 ± 280 nM
- IC50 [4]: 360 ± 340 nM
- IC50 [5]: 1000 ± 100 nM
- IC50 [6]: 31600 ± 27000 nM
- IC50 (MM200 melanoma cell line; Table 2.2, Melanoma MM200): 600 ± 300 nM
- IC50 (MM200 melanoma cell line; Table 15, melanoma MM200, monotherapy): 660 ± 280 nM
- IC50 (A2058 melanoma cell line): 340 nM
- IC50 (cancer cell lines): < 1000 nM
- Cmax [7, 9]: 341 ng/mL
- Tmax [7, 9]: 2.67 h
- t1/2 ([7]; humans dosed orally with 200 mg): 3.26 h
- half-life ([7]; human patients, 200 mg oral, initial results): 3.26 h
- Synergy of HHC with Cisplatin (CP70 (Ovarian)): SSSSS (SSSSS = Synergy)
- Synergy of HHC with Gemcitabine (CP70 (Ovarian)): SSSSS (SSSSS = Synergy)
- Synergy of HHC with Paclitaxel (CP70 (Ovarian); listed as HHC): n.o. (n.o. = not observed)
- Synergy of HHC with Cisplatin (HPAC (Pancreatic)): n.o. (n.o. = not observed)
- Synergy of HHC with Gemcitabine (HPAC (Pancreatic)): SSSSS (SSSSS = Synergy)
- Synergy of HHC with Paclitaxel (HPAC (Pancreatic)): n.o. (n.o. = not observed)
- Synergy of HHC with Cisplatin (HTB-13.8 (Glioma)): n.o. (n.o. = not observed)
- Synergy of HHC with Gemcitabine (HTB-13.8 (Glioma)): SSSSS (SSSSS = Synergy)
- Synergy of HHC with Paclitaxel (HTB-13.8 (Glioma); listed as HHC): n.o. (n.o. = not observed)
- Synergy of HHC with Gemcitabine (MDA-468 (Breast)): SSSSS (SSSSS = Synergy)
- chemosensitisation to cisplatin, carboplatin and decarbazine (MM96L (Melanoma); MM96L melanoma cell line): strongly chemosensitise
- Synergy of HHC with Carboplatin (MM96L (Melanoma); Melanoma MM96L): SSSSS (SSSSS = Synergy)
- Synergy of HHC with Cisplatin (MM96L (Melanoma); Melanoma MM96L): SSSSS (SSSSS = Synergy)
- Synergy of HHC with Dacarbazine (MM96L (Melanoma); Melanoma MM96L): SSSSS (SSSSS = Synergy)
- Synergy of HHC with Cisplatin (PC3 (Prostate)): SSSSS (SSSSS = Synergy)
- Synergy of HHC with Gemcitabine (PC3 (Prostate)): SSSSS (SSSSS = Synergy)
- Synergy of HHC with Paclitaxel (PC3 (Prostate)): n.o. (n.o. = not observed)
- synergy HHC:paclitaxel ([8]; breast and colorectal cancer, and melanoma cell lines): Moderate synergy
- synergy HHC:cisplatin ([8]; colorectal cancer cell lines): mild synergy
- synergy HHC:cisplatin ([8]; ovarian and prostate cancer): Strong synergy
- synergy HHC:paclitaxel ([8]; ovarian cancer and glioma cell lines): Equivocal synergy
- chemosensitisation to gemcitabine ([8]; ovarian, prostate, breast and pancreatic cancers, and glioma): strongly chemosensitise
- synergy HHC:cisplatin ([8]; pancreatic cancer and glioma): synergy was not observed
- synergy HHC:paclitaxel ([8]; prostate and pancreatic cancer cell lines): no evidence of synergy
- Percentage change in PGE2 synthesis vs vehicle alone (PGE2): 27.2%
- Percentage change in TXB2 synthesis vs vehicle alone (TXB2): 51.4%
